{"source": "paper PMC7044277", "about": "(Nature Communications, 2020)", "assay_type_in_all_cases": "cell-based", "key": {"320 non-olfactory GPCRs [1]": {"molecular_target": "T1, 320 non-olfactory GPCRs (Homo sapiens, UniProt P08912)", "T1 construct": "expressed in transfected cells; host or cells: HTLA cells", "T1 sequence (P08912 whole entry)": "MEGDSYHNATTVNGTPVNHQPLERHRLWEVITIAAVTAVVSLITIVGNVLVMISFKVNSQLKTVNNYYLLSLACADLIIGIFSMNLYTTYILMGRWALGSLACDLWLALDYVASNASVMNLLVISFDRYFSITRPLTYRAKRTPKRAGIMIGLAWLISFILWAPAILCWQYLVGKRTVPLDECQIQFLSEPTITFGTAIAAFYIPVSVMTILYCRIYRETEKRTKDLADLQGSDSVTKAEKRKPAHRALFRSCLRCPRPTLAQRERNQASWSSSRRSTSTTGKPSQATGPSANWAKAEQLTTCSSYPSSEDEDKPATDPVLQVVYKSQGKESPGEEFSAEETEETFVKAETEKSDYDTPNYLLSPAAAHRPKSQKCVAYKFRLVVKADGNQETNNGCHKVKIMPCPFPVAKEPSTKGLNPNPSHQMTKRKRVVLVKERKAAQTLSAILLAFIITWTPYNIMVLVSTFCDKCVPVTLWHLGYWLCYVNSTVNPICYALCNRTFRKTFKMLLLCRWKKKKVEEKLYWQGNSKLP"}, "320 non-olfactory GPCRs [2]": {"molecular_target": "T2, 320 non-olfactory GPCRs (Homo sapiens, UniProt P30518)", "T2 construct": "expressed in transfected cells; host or cells: HTLA cells", "T2 sequence (P30518 whole entry)": "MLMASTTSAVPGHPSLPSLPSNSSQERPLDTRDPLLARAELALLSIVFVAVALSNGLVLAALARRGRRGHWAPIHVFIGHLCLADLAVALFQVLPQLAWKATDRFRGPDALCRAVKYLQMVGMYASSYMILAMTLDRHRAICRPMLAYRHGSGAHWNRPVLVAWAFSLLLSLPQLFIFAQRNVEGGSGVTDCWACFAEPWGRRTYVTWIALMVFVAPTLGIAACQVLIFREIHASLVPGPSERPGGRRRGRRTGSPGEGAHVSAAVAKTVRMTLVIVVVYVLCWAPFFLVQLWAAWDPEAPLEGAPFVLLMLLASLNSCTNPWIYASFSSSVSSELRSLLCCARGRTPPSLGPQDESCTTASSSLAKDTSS"}, "320 non-olfactory GPCRs [3]": {"molecular_target": "320 non-olfactory GPCRs (Homo sapiens, UniProt P35462)", "sequence (P35462 whole entry)": "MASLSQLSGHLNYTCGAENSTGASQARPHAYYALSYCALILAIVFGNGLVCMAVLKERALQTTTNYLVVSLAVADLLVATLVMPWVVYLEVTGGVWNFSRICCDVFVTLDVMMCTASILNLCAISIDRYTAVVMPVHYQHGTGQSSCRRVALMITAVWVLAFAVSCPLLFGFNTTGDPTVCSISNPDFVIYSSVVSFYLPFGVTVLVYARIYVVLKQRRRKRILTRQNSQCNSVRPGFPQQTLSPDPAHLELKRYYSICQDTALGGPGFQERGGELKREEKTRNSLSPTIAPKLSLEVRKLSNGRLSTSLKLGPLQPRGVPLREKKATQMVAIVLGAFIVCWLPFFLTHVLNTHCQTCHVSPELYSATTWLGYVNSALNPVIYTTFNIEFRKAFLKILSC"}, "320 non-olfactory GPCRs [4]": {"molecular_target": "T3, 320 non-olfactory GPCRs (Homo sapiens, UniProt P51684)", "T3 construct": "expressed in transfected cells; host or cells: HTLA cells", "T3 sequence (P51684 whole entry)": "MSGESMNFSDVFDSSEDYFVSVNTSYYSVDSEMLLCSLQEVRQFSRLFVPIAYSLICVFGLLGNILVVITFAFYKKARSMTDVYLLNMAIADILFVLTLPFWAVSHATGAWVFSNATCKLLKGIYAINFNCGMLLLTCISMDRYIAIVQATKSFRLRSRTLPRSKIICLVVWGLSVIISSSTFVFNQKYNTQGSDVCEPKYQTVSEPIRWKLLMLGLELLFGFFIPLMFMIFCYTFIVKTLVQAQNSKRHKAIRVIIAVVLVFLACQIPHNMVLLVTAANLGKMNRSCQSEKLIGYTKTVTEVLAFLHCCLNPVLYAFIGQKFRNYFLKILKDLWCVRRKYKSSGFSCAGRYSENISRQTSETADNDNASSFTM"}}, "note": "“And” between values parts separate entries of the source, which are not always exact repeats. Equal entries are not always repeated.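 Note: compound tested at 1 µM final concentration.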"}
{"smiles": "CCOc1cccc2cc(C(C)NCC3(O)CCCCC3)oc12", "note": "(stereo not shown) [O4LE6]", "values": [{"measurement": "Fold of Basal", "setting": "320 non-olfactory GPCRs [1]", "result": "0.9113 and 1.052 and 0.8596 and 0.9753"}, {"measurement": "Fold of Basal", "setting": "320 non-olfactory GPCRs [2]", "result": "1.01 and 0.8337 and 0.9883 and 1.294"}, {"measurement": "Fold of Basal", "setting": "320 non-olfactory GPCRs [3]", "result": "9.324 and 11.1304 and 9.776 and 11.3977"}, {"measurement": "Fold of Basal", "setting": "320 non-olfactory GPCRs [4]", "result": "0.9905 and 0.8775 and 0.7328 and 0.5067"}]}
